In assay [1] the target is T1, BNPI (VGLUT1) (Rattus norvegicus, UniProt Q62634).
T1 construct: expressed in transfected cells; light membranes prepared from them
T1 sequence (Q62634 1-560): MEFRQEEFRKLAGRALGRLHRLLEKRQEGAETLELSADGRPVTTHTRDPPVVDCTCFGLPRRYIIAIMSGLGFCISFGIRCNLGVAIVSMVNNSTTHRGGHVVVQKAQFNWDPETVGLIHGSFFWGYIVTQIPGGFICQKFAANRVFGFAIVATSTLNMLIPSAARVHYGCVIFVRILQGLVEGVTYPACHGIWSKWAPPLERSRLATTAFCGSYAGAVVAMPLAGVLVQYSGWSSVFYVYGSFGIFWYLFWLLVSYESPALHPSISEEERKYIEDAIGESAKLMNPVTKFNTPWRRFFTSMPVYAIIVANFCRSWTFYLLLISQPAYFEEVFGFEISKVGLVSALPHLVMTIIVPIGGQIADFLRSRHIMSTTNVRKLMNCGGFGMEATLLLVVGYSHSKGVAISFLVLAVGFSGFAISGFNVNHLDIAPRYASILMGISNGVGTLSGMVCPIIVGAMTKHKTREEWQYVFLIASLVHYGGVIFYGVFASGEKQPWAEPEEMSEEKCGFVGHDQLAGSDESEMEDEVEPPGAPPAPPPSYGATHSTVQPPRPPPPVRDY
The assay can be described thus: 3H-glutamate uptake by membranes from PC12 cells expressing BNPI. The following applies: for inhibition of 3H-glutamate uptake by membranes expressing BNPI: uptake at 5 min; for effect on 3H-glutamate uptake by BNPI membranes: membranes preloaded with 4 mM KCl. The format is biochemical. The source says: Rather, the type I transporter NaPi-1 transports organic anions, including phenol red and penicillin G, with substantially higher apparent affinity than Pi (Busch et al. (1996) Proc. Natl. Acad. Sci., USA, 93: 5347). Human genetic studies have shown that mutations in another protein closely related to BNPI and NaPi-1 account for disorders of sialic acid storage (Verheijen et al. (1999) Nature Genet. 23: 462). In these conditions, sialic acid accumulates in lysosomes because of a defect in proton-driven export (Renlund et al. (1986) Science 232: 759; Mancini et al. (1989) J. Biol. Chem. 264: 15247; Tietze et al. (1989) J. Biol. Chem. 264: 15316; Mancini et al. (1992) Proc. Natl. Acad. Sci., USA, 89: 6609). […] To determine whether BNPI mediates the transport of glutamate into synaptic vesicles, we transfected the rat BNPI cDNA into rat pheochromocytoma PC12 cells, which lack detectable endogenous BNPI protein. The rat BNPI cDNA was stably expressed in PC12 cells, and immunofluorescence for BNPI was used to identify the most highly expressing cell clones. Membranes were prepared by homogenizing the washed cells in SH buffer [0.32 M sucrose and 10 mM Hepes-KOH (pH 7.4)] containing protease inhibitors and by pelleting the nuclei at 1000 g for 5 min and the heavier membranes at 27,000 g for 35 min. The supernatant containing lighter membranes was then pelleted at 210,000 g for 1 hour and resuspended in SH buffer with protease inhibitors at a final concentration of ˜10 μg protein/μl.
We then prepared a population of light membranes, including synaptic-like microvesicles, from the transfected and untransfected cells (McIntire et al. (1997) Nature 389: 870) and tested their ability to accumulate 3H-glutamate in the presence of 4 mM chloride and ATP, conditions that optimize glutamate accumulation by native synaptic vesicles (Maycox et al. (1988) J. Biol. Chem., 263: 15423; Carlson et al. […] J. Biol. Chem. 264: 7369). To initiate the transport reaction, we added 10 μl of membranes to 190 μl of SH buffer containing 4 mM KCl, 4 mM MgSO4, 4 mM ATP, and 50 μM 3H-glutamate, with other additions noted in the text and figure legends. The reaction mixture was incubated at 29° C. for varying times, and the uptake was terminated by rapid filtration, followed by immediate washes with 6 ml of cold 0.155 M potassium tartrate and 10 mM Hepes (pH 7.4). Background uptake was determined using membranes prepared from untransfected cells that were incubated for the same amount of time at the same temperature. Transport measurements were performed in duplicate with at least two different preparations of membranes. The Km was calculated by averaging the results of two separate determinations.

Assay [2] deals with synaptic vesicles. Particulars: cited from earlier work.
For assay [3], the target named is T2, DNPI/VGLUT2 (Rattus norvegicus, UniProt Q9JI12).
T2 construct: To reconstruct the full open reading frame, the missing segment was amplified from rat brain cDNA by PCR; expressed in transfected cells; light membranes prepared from them
T2 sequence (Q9JI12 1-582): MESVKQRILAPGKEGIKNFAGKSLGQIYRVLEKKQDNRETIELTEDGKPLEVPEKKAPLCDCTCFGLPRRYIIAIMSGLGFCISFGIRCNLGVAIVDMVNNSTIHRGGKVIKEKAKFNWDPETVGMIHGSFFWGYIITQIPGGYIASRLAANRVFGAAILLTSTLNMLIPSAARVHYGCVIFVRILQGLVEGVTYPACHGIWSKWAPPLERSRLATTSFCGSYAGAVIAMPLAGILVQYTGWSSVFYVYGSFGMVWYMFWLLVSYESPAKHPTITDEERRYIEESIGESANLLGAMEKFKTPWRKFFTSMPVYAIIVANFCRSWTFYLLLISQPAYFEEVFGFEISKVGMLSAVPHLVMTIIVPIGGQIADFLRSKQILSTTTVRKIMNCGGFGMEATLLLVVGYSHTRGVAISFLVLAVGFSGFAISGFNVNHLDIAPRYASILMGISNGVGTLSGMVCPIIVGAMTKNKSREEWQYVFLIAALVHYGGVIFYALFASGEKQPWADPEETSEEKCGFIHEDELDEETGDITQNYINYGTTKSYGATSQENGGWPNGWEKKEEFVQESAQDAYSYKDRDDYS
Put plainly: 3H-L-glutamate uptake by membranes from PC12 cells expressing DNPI/VGLUT2. The following applies: for inhibition of DNPI-mediated 3H-L-glutamate uptake: uptake at 5 minutes; for effect on 3H-glutamate uptake by DNPI membranes: preloaded 4 mM KCl, 5 minutes. Format: biochemical. As to the method:
PC12 cells were grown in Dulbecco's modified Eagle's medium containing 10% equine serum, 5% calf serum and transfected by electroporation with the rat DNPI/VGLUT2 cDNA subcloned in the pcDNA3 vector containing an […] (Krantz et al. (2000) J. Cell Biol. 149). Stable transformants were selected for resistance to the neomycin analog G418 (500 μg/ml) and screened by immunofluorescence with the DNPI antibody, resulting in the identification of two independent clones with more than 80% of the cells expressing DNPI.
For membrane preparation, untransfected and DNPI-expressing PC12 cells were grown on 15 cm plates, washed with calcium- and magnesium-free PBS, collected in 0.32 M sucrose/10 mM HEPES-KOH, pH 7.4 (SH buffer) containing protease inhibitors (2 μg/ml leupeptin, 1 μg/ml pepstatin, 1 μg/ml E64, 0.2 mM diisopropylfluorphosphate, 2 μg/ml aprotinin, and 1.25 mM MgEGTA), homogenized using a ball bearing device and the homogenate sedimented at 1000 g for 5 min to remove nuclei and debris. The supernatant was then sedimented at 27,000 g for 35 min to remove heavier membranes. The remaining light membranes including small synaptic-like microvesicles were then sedimented at 210,000 g for 1 hour. The pellet was resuspended in SH buffer with protease inhibitors at ˜10 mg protein/ml.
To initiate the transport reaction, 20 μl membranes (˜200 μg protein) were added to 180 μl SH buffer containing 4 mM KCl, 4 mM MgSO4, […], and 100 μM ^3H-L-glutamate, with other additions noted in the text and figure legends. The reaction mixture was incubated at 29° C. for varying intervals, uptake was terminated by rapid filtration through Supor-200 membranes (Gelman) and the filters were washed rapidly four times with 1.5 ml cold 0.155 M potassium tartrate/10 mm HEPES-KOH, pH 7.4 before measuring the bound radioactivity by scintillation counting in 3 ml Cytoscint (ICN). Uptake specifically mediated by DNPI/VGLUT2 was determined by subtracting the background uptake of untransfected cell membranes from the uptake by transfected cell membranes. To examine the chloride dependence of transport, varying proportions of 0.14 M K gluconate and 0.14 M KCl were mixed in the standard reaction buffer (without sucrose) to vary the chloride concentration and maintain constant osmolarity. The ionophores nigericin and valinomycin used in FIG. 13E were prepared as 200× stock solutions in ethanol. The final ethanol concentration in the reaction mixture was 1%.

Assay [4] relates to untransfected PC12 cell membranes. The assay can be described thus: background 3H-glutamate uptake by membranes from untransfected PC12 cells. The format is biochemical, rat. The following applies: uptake at 5 min. As to the method:
To initiate the transport reaction, we added 10 μl of membranes to 190 μl of SH buffer containing 4 mM KCl, 4 mM MgSO4, 4 mM ATP, and 50 μM 3H-glutamate, with other additions noted in the text and figure legends. […] Background uptake was determined using membranes prepared from untransfected cells that were incubated for the same amount of time at the same temperature. Transport measurements were performed in duplicate with at least two different preparations of membranes. The Km was calculated by averaging the results of two separate determinations.

Consider ten molecules from patent US6818391B2, “Glutamate transporters” (The Regents of the University of California, priority 2000, dated 2004).

Entries after “also recorded” stand apart in the source; their conditions may differ.

`Cc1cc(-c2ccc(/N=N/c3ccc4c(S(=O)(=O)O)cc(S(=O)(=O)O)c(N)c4c3O)c(C)c2)ccc1/N=N/c1ccc2c(S(=O)(=O)O)cc(S(=O)(=O)O)c(N)c2c1O` [Evans blue]: the “inhibition of 3H-glutamate uptake by membranes expressing BNPI” value (“inhibition of 3H-glutamate uptake” below) in assay [1] (Evans blue 5 μM (low micromolar)) is listed as “inhibited the transport; also recorded: inhibits BNPI activity dramatically”. The “inhibition of glutamate transport into synaptic vesicles” value in assay [2] (low micromolar concentrations) was “inhibited the transport”. In addition, in assay [3] (Evans Blue 4.5 μM), the “inhibition of DNPI-mediated 3H-L-glutamate uptake” value was “inhibit uptake; also recorded: significantly inhibit”. The “effect on background glutamate uptake by untransfected cell membranes” value in assay [4] is on record as “had little effect”.
With `NC(=O)CC[C@H](N)C(=O)O` [L-glutamine], in assay [1] (10 mM), the “inhibition of 3H-glutamate uptake” value is “had no effect and not”.
As to `O=P(O)(O)O` [Pi, inorganic phosphate], in assay [1] (10 mM), the “inhibition of 3H-glutamate uptake” value was “did not inhibit; also recorded: has little effect”. The “inhibition of 3H-L-glutamate uptake by DNPI” value in assay [3] (Pi, data not shown) was “does not”.
For `NCC(=O)O` [glycine], in assay [3] (10 mM), the “inhibition of DNPI-mediated 3H-L-glutamate uptake” value is on record as “not”.
Consider `CC(C)[C@@H]1NC(=O)[C@H](C)OC(=O)[C@@H](C(C)C)NC(=O)[C@@H](C(C)C)OC(=O)[C@H](C(C)C)NC(=O)[C@H](C)OC(=O)[C@@H](C(C)C)NC(=O)[C@@H](C(C)C)OC(=O)[C@H](C(C)C)NC(=O)[C@H](C)OC(=O)[C@@H](C(C)C)NC(=O)[C@@H](C(C)C)OC1=O` [valinomycin], for which the “effect on 3H-glutamate uptake by BNPI membranes” value in assay [1] (valinomycin 20 μM) is given as “substantially reduces glutamate uptake”. Also, in assay [3] (20 μM valinomycin), the “effect on 3H-glutamate uptake by DNPI membranes” value is “inhibits”.
For `N[C@H](CC(=O)O)C(=O)O` [D-aspartate], the “inhibition of DNPI-mediated 3H-L-glutamate uptake” value in assay [3] (10 mM) was “not”.
`CO[C@@H]1C[C@@H](C[C@H]2CC[C@H](C)[C@H]([C@@H](C)C(=O)O)O2)O[C@]2(O[C@](C)([C@H]3CC[C@@](C)([C@@H]4O[C@@H]([C@H]5O[C@@](O)(CO)[C@H](C)C[C@@H]5C)C[C@@H]4C)O3)C[C@H]2C)[C@@H]1C` [nigericin]: in assay [1] (nigericin 5 μM), the “effect on 3H-glutamate uptake by BNPI membranes” value is given as “increases the uptake”. The “effect on 3H-glutamate uptake by DNPI membranes” value in assay [3] (5 μM nigericin) is “did not significantly reduce transport”.
Consider `O=S(=O)(O)c1cc(N=C=S)ccc1C=Cc1ccc(N=C=S)cc1S(=O)(=O)O` [DIDS, 4,4′-diisothiocyanatostilbene-2,2′-disulfonic acid], for which, in assay [1] (1 μM DIDS), the “inhibition of 3H-glutamate uptake” value is on record as “blocks transport only partly”. Besides, the inhibition (usually the percentage by which the read-out fell short of the control) at 1 µM in assay [1] (1 μM DIDS, read-out: inhibition of 3H-glutamate transport mediated by BNPI) is about 60%. For the same molecule, the IC50 in assay [2] (read-out: median inhibitory concentration, glutamate transport by synaptic vesicles) is about 700 nM.
For `NCCCC(=O)O` [GABA, γ-aminobutyric acid], the “inhibition of DNPI-mediated 3H-L-glutamate uptake” value in assay [3] (10 mM) was “not”.
Take `N[C@H](CCC(=O)O)C(=O)O` [D-Glutamate]: the “inhibition of 3H-glutamate uptake” value in assay [1] (10 mM) is on record as “partially inhibits”. In addition, the “inhibition of DNPI-mediated 3H-L-glutamate uptake” value is listed as “significantly inhibit” in assay [3] (10 mM) and “inhibit uptake” in assay [3] (10 mM, listed as D-glutamate).
